Series [1] relates to HCT-116. Nature of the series: Antitumor activity against human HCT-116 cells assessed as inhibition of colony formation measured after 12 to 20 days by crystal violet staining based analysis. It is filed as functional, cell-based. The settings on record: dose <= 0.4 µM, time 12-20 day, DDE = dose-dependent effect.
The nature of series [2]: AUC in 12 hr fasted BALB/c mouse at 80 mg/kg, po measured for 0.083 to 24 hrs by UPLC-MS/MS analysis. Format: ADME, organism-based. Also noted: time upper 24 hrs, dose 80 mg/kg, time lower 0.083 hrs, route po. The settings on record: in vivo.
In series [3] the target is T1, Bromodomain-containing protein 4 (Homo sapiens, UniProt O60885). Nature of the series: Inhibition of BRD4 in human ASPC1 cells assessed as decrease in c-Myc level at 1 uM incubated for 72 hrs by Western blot analysis. Format: cell-based.
Series [4] relates to HCT-116. The experiment in a line: Effect on TRHDE mRNA levels in human HCT-116 cells at 5 uM incubated for 48 hrs by RT-qPCR analysis. It is filed as functional, cell-based. On the technique in general: In qPCR the cycle at which signal appears reflects the starting amount.
Series [5] deals with ASPC1. The experiment in a line: Antitumor activity against human ASPC1 cells assessed as inhibition of colony formation measured after 12 to 20 days by crystal violet staining based analysis. It is filed as functional, cell-based. Particulars: dose <= 0.1 µM, time 12-20 day, DDE = dose-dependent effect.
A short description of series [6]: Clearance in 12 hr fasted BALB/c mouse at 80 mg/kg, ip measured for 0.083 to 24 hrs by UPLC-MS/MS analysis. Particulars: in vivo, time 0.083-24 hrs. It is filed as ADME, organism-based.
Series [7] in a line: Toxicity in BALB/c mouse xenografted with human A549 cells assessed as adverse effects at 60 mg/kg, ip administered 6 times weekly for 38 days. The settings on record: in vivo, 912 h, time 38 day. It is filed as organism-based. On the technique in general: A xenograft is tissue or cells of one species grown in another, often human tumour cells in immunodeficient mice.
Series [8] addresses T1, Bromodomain-containing protein 4. Nature of the series: Inhibition of BRD4 in human A549 cells assessed as increase in p21 levels incubated for 72 hrs by Western blot analysis. It is filed as cell-based. The settings on record: dose <= 2.5 µM, DDE = dose-dependent effect.
Series [9] can be described thus: Cmax in 12 hr fasted BALB/c mouse at 80 mg/kg, po measured for 0.083 to 24 hrs by UPLC-MS/MS analysis. It is filed as ADME, organism-based. Also noted: dose 80 mg/kg, time 0.083-24 hrs, route po. The settings on record: in vivo.
For series [10], the target named is T2, Histone-lysine N-methyltransferase EZH2 (Homo sapiens, UniProt Q15910). Nature of the series: Inhibition of EZH2 in human A549 cells assessed as decrease in H3K27me3 level at 0.05 uM incubated for 72 hrs by Western blot analysis. It is filed as cell-based. (In general: In western blotting, separated proteins are transferred to a membrane and probed.)
T2 sequence (Q15910 whole entry, looked up): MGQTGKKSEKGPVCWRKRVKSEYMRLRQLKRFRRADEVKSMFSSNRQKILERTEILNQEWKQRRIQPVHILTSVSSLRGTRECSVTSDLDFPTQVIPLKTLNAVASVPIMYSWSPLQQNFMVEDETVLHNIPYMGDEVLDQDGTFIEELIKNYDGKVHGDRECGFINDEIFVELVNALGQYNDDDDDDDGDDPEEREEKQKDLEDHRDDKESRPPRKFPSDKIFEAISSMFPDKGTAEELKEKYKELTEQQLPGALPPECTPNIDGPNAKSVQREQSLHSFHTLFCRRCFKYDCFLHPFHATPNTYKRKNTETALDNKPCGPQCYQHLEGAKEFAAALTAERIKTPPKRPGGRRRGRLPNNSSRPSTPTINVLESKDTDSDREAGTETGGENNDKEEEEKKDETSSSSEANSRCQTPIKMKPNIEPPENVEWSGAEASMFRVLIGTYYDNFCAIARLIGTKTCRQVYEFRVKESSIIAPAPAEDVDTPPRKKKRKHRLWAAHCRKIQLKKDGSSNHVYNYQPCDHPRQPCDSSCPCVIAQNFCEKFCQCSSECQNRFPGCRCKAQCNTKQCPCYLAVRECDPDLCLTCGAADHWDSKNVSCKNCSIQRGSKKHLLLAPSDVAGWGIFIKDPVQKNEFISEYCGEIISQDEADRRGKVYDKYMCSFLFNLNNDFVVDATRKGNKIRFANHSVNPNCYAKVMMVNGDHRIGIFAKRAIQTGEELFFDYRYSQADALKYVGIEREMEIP
The test system of series [11] is A549. The experiment in a line: Inhibition of EZH2/BRD4 in human A549 cell lysate assessed as ternary complex formation at 1 uM preincubated for 24 hrs for 30 mins followed by DSP treatment by co-immunoprecipitation method. Format: subcellular. Particulars: time 24.5 hrs.
The nature of series [12]: Bioavailability in 12 hr fasted BALB/c mouse at 80 mg/kg, po measured for 0.083 to 24 hrs by UPLC-MS/MS analysis. Format: ADME, organism-based. The settings on record: in vivo, time 0.083-24 hrs.
Series [13] concerns ASPC1. Nature of the series: Antiproliferative activity against human ASPC1 cells assessed as cell growth inhibition incubated for 6 days by MTS assay. Format: functional, cell-based. The settings on record: ASPC1, 144 h, read-out: IC50.
In series [14] the test system is ASPC1. Nature of the series: Effect on TRHDE mRNA levels in human ASPC1 cells at 5 uM incubated for 48 hrs by RT-qPCR analysis. Format: functional, cell-based.
Series [15] has as its target T2, Histone-lysine N-methyltransferase EZH2. The experiment in a line: Inhibition of EZH2 in human ASPC1 cells assessed as decrease in H3K27me3 levels at 1 uM incubated for 72 hrs by Western blot analysis. Format: cell-based.
Series [16] has as its system ASPC1. Nature of the series: Effect on TXINP mRNA levels in human ASPC1 cells at 5 uM incubated for 48 hrs by RT-qPCR analysis. Format: functional, cell-based.
The test system of series [17] is HCT-116. The experiment in a line: Effect on ADRB2 mRNA levels in human HCT-116 cells at 5 uM incubated for 48 hrs by RT-qPCR analysis. Format: functional, cell-based.
For series [18], the system named is ASPC1. Nature of the series: Induction of apoptosis in human ASPC-1 cells assessed as downregulation of Bcl-xl protein at 1 uM inubated for 72 hrs by Western blot analysis. It is filed as functional, cell-based.
The test system of series [19] is A549. Nature of the series: Antitumor activity against human A549 cells xenografted in BALB/c mouse assessed as reduction in tumor weight at 60 mg/kg, ip administered 6 times weekly for 38 days relative to control. Format: functional. More on the design: scale not given: the % may be the effect or the level left. The settings on record: time 38 day.
Series [20] relates to HCT-116. Nature of the series: Effect on TNFRSF21 mRNA levels in human HCT-116 cells at 5 uM incubated for 48 hrs by RT-qPCR analysis. It is filed as functional, cell-based.
The test system of series [21] is HCT-116. Nature of the series: Induction of apoptosis in human HCT116 cells assessed as early apoptotic cells at 10 uM measured after 72 hrs by flow cytometry (reference value: 2.8 %). It is filed as functional.
The test system of series [22] is A549. Nature of the series: Induction of cell cycle arrest in 24 hr starved human A549 cells assessed as accumulation at G0/G1 phase at 1 uM measured after 48 hrs by PI staining based flow cytometric analysis. Format: functional.
Series [23] has as its system A549. Nature of the series: Antiproliferative activity against human A549 cells assessed as inhibition of cell proliferation at 1 uM incubated for 4 days by cell counter method. Format: functional, cell-based. Particulars: time 4.0 day.

The source made the active and inactive calls. The rule behind the calls is not given here.

For orientation: AUC means the area under the concentration-time curve, a measure of exposure. What is called CL/F is clearance divided by bioavailability, as obtained after extravascular dosing. What is called Cmax is the maximum level reached in the sampled fluid or tissue. As usually defined, the bioavailability is dose-corrected exposure relative to a reference, in per cent. The term IC50 denotes the midpoint of a concentration-inhibition curve. Regarding `CCN(c1cc(-c2ccc(OCCCCCNC(=O)C[C@@H]3N=C(c4ccc(Cl)cc4)c4c(sc(C)c4C)-n4c(C)nnc43)cc2)cc(C(=O)NCc2c(C)cc(C)[nH]c2=O)c1C)C1CCOCC1`, the Activity entry in the series on HCT-116 [1] is “Dde”; with ASPC1 [5] it was “Dde”; in series [7], “Non-Toxic”; in the series with A549 [19] it was 57.8%; with HCT-116 [21], 63.4%. Besides, the AUC in [2] stood at 13500 ng·h/mL. In addition, the inhibition result (in series [3]; in series [10]; with A549 [11]; in [15]) was “Active” in each case. The outcome in the series with HCT-116 [4], in the series on ASPC1 [14], in the series on ASPC1 [16], in the series with HCT-116 [17], with ASPC1 [18] and in the series with HCT-116 [20] was Active. Also, the outcome in the series with A549 [22] and with A549 [23] was Active. Also, the CL/F in series [6] was 4.88 mL/min/kg. For the same compound, the inhibition result in series [8] is “Dde”. Also, the peak concentration (Cmax) in series [9] was found to be 4380 ng/mL. In series [12], this compound registered a bioavailability of 4.94%. For the same compound, the half-inhibitory concentration (IC50) in the series on ASPC1 [13] was 690 nM.

These data come from ChEMBL document CHEMBL5154900, “Design and Synthesis of Dual EZH2/BRD4 Inhibitors to Target Solid Tumors” (J Med Chem, 2022).
